{"source": "patent US20090270626A1", "about": "“STABLE BISTHIOL COMPOUNDS FOR RA[…] THERAPY” (Organix, Inc., priority 2008, published 2009)", "assay": "Stability of the deprotected bisthiol measured by HPLC with UV and mass detection", "type": "physicochemical", "conditions": "room temperature", "description": "Stability of compound O-5648 (see Example 1, above) was measured by HPLC with UV and mass detection. The bisthiol free base was stable up to 100 hours at room temperature in methanol exposed to air.\nThe bisthiol dihydrochloride salt was stable in MeOH up to 150 hours at room temperature.\nThe solid bisthiol dihydrochloride salt exposed to air was stable for >170 hours at room temperature.", "note": "Counter-ions that a name gives are not always drawn."}
{"smiles": "CCC(=O)C1C2CC[C@H](C[C@H]1c1ccc(F)cc1)N2CCCN(CCS)CC(=O)NCCS", "note": "(stereo partly drawn) [O-5648, N-[2-(3′-N′-Propyl-(1″R)-3″α-(4-fluorophenyl)tropane-2″β-(1-propanoyl)-[(2-mercapto-ethyl)-amino]-(2-mercapto-ethyl-acetamide, dihydrochloride salt]", "values": [{"measurement": "time stable (bisthiol dihydrochloride salt in MeOH)", "setting": "bisthiol dihydrochloride salt, in MeOH", "result": "up to 150 hours"}, {"measurement": "time stable (bisthiol free base in methanol)", "setting": "bisthiol free base, in methanol exposed to air", "result": "up to 100 hours"}, {"measurement": "time stable (solid bisthiol dihydrochloride salt)", "setting": "solid bisthiol dihydrochloride salt exposed to air", "result": "> 170", "unit": "h"}]}
